Measured values published in BigSolDB 2.1.

Oc1ccc(/C=C/c2cc(O)cc(O)c2)cc1
solubility (mole fraction)
Conditions | in dichloromethane | in ethanol | in methanol | in n-butanol | in n-propanol
283.15 K | 1.23e-06 | 0.0212 | 0.0174 | 0.0103 | 0.0134
288.15 K | 1.57e-06 | 0.0224 | 0.0182 | 0.0112 | 0.0145
293.15 K | 2e-06 | 0.0236 | 0.019 | 0.0121 | 0.0156
298.15 K | 2.53e-06 | 0.0248 | 0.0198 | 0.013 | 0.0168
303.15 K | 3.13e-06 | 0.0261 | 0.0206 | 0.014 | 0.018
